Here are results for 27 compounds from patent publication US20240360151A1 (SANOFI, priority 2023, published 2024).

One assay concerns the target T1, NLRP3 inflammasome (Homo sapiens, UniProt Q96P20).
T1 construct: endogenous in cells; host or cells: THP-1 monocytic cells
The experiment in a line: IL-1β secretion assay (NLRP3 IC50) in LPS-primed, nigericin-activated THP-1 cells, HTRF. The conditions noted are these: monocytic THP-1 cells; LPS 10 ng/mL 3 h priming, then compound + nigericin 10 μM 2 h; relative IC50, 10 concentrations, geometric mean. The class given is cell-based. Summed up:
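IL-1β in supernatant read by HTRF after 2 h co-incubation of compound (0.1% DMSO, 10 concentrations, 1:3 series) with nigericin at 10 μM final, following 3 h LPS (10 ng/mL) priming of THP-1 monocytes at 37° C. Inhibition normalised to unactivated and no-compound controls; geometric-mean relative IC50 from 4-parameter logistic model.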
On the technique in general: TR-FRET usually uses a lanthanide donor and a delayed reading to cut background.

For assay [1], the system named is NF-kB pathway (TNF-α secretion by THP-1 cells). The experiment in a line: TNF-α secretion assay in LPS-stimulated THP-1 cells, Lumit immunoassay. The conditions noted are these: monocytic THP-1 cells, LPS 10 ng/mL, relative IC50, 10 concentrations, geometric mean. The class given is cell-based, human. As for the experimental part: Monocytic THP-1 cells were maintained in RPMI 1640 media (Gibco 21875)+10% FBS, (Gibco 10500)+1% penicillin/streptomycin (Gibco 15140-122). Cells were then plated at 40,000 cells per well in 384-well cell culture plates (Corning 3542) and maintained with RPMI1640 (Gibco 11835)+5% FBS, (Gibco 10500). Experimental compounds were prepared and added as described above. TNF-α secretion was triggered by the addition of 10 ng/mL LPS (invivoGen, tlrl-3pelps) and cells were incubated for 3 hours. TNF-α levels were monitored directly in the cells plate using an Lumit assay (Lumit TNFa-Human Immunoassay—Promega W6051) according to manufacturers' instructions.
Data were expressed as percentage of inhibition (I %) as compared to a maximum signal control containing no small molecule (I %=0%) according to the formula: 1%=(1−((Sample−Min))/((Max−Min)))×100, where: • Sample: Signal obtained in the presence of each compound tested, • Max: Maximum signal in the absence of compound added, • Min: Minimum or background signal obtained in the absence of activation signal.
Relative IC50 (IC50 rel) were obtained from a dose response curve with 10 concentrations. Final IC50 rels are expressed as the geometric mean.
Relative IC50 values were estimated with Biost@t-SPEED v2.4 internal software based on SAS system using the 4-parameter logistic model according to Ratkovsky and Reedy (D. A. Ratkovsky, T. J. Reedy, Choosing near-linear parameters in the four parameters logistic model radioligands and related assays. Biometrics, 42 (1986), 575-582): Y=A+C/((1+exp(−B*(log(X)−M)))), where: • A: Lower asymptote (BOTTOM), • A+C: Upper asymptote (TOP), • M: the logarithm of the concentration estimated at the inflexion point (the logarithm of the relative IC50), • B: Slope at the inflexion point of the curve.

Structures can show the parent of a compound that is named as a salt.

T1 sequence (Q96P20 whole entry): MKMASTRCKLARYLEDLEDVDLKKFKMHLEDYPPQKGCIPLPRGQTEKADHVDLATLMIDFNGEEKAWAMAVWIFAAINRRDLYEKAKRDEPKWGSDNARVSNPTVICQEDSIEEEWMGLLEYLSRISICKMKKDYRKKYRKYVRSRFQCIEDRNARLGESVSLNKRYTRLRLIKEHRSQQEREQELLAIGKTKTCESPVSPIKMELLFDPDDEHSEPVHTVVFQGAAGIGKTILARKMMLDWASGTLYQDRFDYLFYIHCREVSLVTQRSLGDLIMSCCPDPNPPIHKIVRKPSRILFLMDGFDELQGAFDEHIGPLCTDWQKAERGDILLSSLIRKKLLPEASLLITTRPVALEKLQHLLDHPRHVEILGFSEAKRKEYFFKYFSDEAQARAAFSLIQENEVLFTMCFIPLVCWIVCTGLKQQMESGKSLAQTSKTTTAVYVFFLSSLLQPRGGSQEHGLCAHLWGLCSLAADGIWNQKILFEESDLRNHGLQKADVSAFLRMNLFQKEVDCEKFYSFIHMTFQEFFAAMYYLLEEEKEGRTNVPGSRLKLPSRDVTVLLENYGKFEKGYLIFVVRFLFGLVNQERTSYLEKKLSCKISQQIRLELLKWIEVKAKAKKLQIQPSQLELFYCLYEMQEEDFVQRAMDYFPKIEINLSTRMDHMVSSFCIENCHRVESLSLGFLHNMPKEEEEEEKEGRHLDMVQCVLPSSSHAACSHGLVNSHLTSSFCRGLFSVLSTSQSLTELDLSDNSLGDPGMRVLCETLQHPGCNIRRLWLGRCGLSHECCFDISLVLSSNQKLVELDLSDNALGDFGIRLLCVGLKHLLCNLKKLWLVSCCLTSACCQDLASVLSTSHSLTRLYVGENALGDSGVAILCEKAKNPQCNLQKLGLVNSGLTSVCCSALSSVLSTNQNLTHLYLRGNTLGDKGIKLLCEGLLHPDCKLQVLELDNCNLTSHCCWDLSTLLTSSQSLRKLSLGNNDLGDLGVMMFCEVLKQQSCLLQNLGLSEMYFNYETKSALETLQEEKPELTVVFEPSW

For `CCN1CC[C@@H]2OCCN(c3ccc(-c4c(C)cc(Cl)cc4O)nn3)[C@@H]2C1` (single isomer, unassigned) [Example 312], the IC50 (usually the midpoint of a concentration-inhibition curve) at NLRP3 inflammasome is 56 nM; in assay [1] (Homo sapiens, THP-1, 3 h), more than 10000 nM.

Take `Cc1cc(C(F)(F)F)cc(O)c1-c1ccc(N2CC[C@H]3CNC[C@H]3C2=O)nn1` (racemic) [Example 264, rac-(3aS,7aR)-5-[6-[2-hydroxy-6-methyl-4-(trifluoromethyl)phenyl]pyridazin-3-yl]-2,3,3a,6,7,7a-hexahydro-1H-pyrrolo[3,4-c]pyridin-4-one, hydrochloride]: the IC50 is 69 nM at NLRP3 inflammasome and more than 10000 nM in assay [1] (Homo sapiens, THP-1, 3 h).

As to `CCc1cccc(O)c1-c1ccc(N2CCO[C@@H]3CCN(C)C[C@@H]32)nn1` [Example 358, 2-[6-[(4aS,8aR)-6-methyl-3,4a,5,7,8,8a-hexahydro-2H-pyrido[4,3-b][1,4]oxazin-4-yl]pyridazin-3-yl]-3-ethyl-phenol], the IC50 was 11 nM on NLRP3 inflammasome and more than 10000 nM in assay [1] (Homo sapiens, THP-1, 3 h).

As to `Cc1cc(C2CC2)cc(O)c1-c1ccc(N2CCO[C@H](CO)C2)nn1` [Example 204, 5-cyclopropyl-2-[6-[(2S)-2-(hydroxymethyl)morpholin-4-yl]pyridazin-3-yl]-3-methyl-phenol], the IC50 at NLRP3 inflammasome was 54 nM; in assay [1] (Homo sapiens, THP-1, 3 h), more than 10000 nM.

For `Cc1cc(C)c(-c2ccc(N3CCO[C@@H](CN)C3)nn2)c(O)c1` [Example 87, 2-[6-[(2S)-2-(aminomethyl)morpholin-4-yl]pyridazin-3-yl]-3,5-dimethyl-phenol; 2,2,2-trifluoroacetic acid], the IC50 was 311 nM at NLRP3 inflammasome and more than 10000 nM in assay [1] (Homo sapiens, THP-1, 3 h).

As for `O=C1NCCCN1c1ccc(-c2c(O)cc(Cl)cc2Cl)nn1` [Example 239, 1-[6-(2,4-dichloro-6-hydroxy-phenyl)pyridazin-3-yl]hexahydropyrimidin-2-one], the IC50 on NLRP3 inflammasome was 200 nM; in assay [1] (Homo sapiens, THP-1, 3 h), more than 10000 nM.

As for `CCN1CC[C@H]2CCN(c3ccc(-c4c(C)cc(C(F)(F)F)cc4O)nn3)[C@H]2C1` (single isomer, unassigned) [Example 429], the IC50 at NLRP3 inflammasome is less than 0.36 nM; in assay [1] (Homo sapiens, THP-1, 3 h), more than 10000 nM.

Take `Cc1cc(C(F)(F)F)cc(O)c1-c1ccc(N2CCO[C@H](CN(C)C)C2)nn1` (single isomer, unassigned) [Example 59, 2-[6-[-2-[(dimethylamino)methyl]morpholin-4-yl]pyridazin-3-yl]-3-methyl-5-(trifluoromethyl)phenol]: the IC50 on NLRP3 inflammasome was 203 nM; in assay [1] (Homo sapiens, THP-1, 3 h), more than 10000 nM.

Regarding `CCc1cc(C(F)(F)F)cc(O)c1-c1ccc(N2CCO[C@@H]3CCN(C(C)=O)C[C@@H]32)nn1` [Example 380, 1-[(4aS,8aR)-4-[6-[2-ethyl-6-hydroxy-4-(trifluoromethyl)phenyl]pyridazin-3-yl]-3,4a,5,7,8,8a-hexahydro-2H-pyrido[4,3-b][1,4]oxazin-6-yl]ethanone], the IC50 at NLRP3 inflammasome is 4 nM; in assay [1] (Homo sapiens, THP-1, 3 h), more than 10000 nM.

`Cc1ccc(-c2nnc(N3CCO[C@H](CO)C3)cc2C(F)(F)F)c(O)c1` [Example 155, 2-[6-[(2S)-2-(hydroxymethyl)morpholin-4-yl]-4-(trifluoromethyl)pyridazin-3-yl]-5-methyl-phenol]: the IC50 at NLRP3 inflammasome is 461 nM; in assay [1] (Homo sapiens, THP-1, 3 h), more than 10000 nM.

For the compound `Oc1cc(Cl)cc(Cl)c1-c1ccc(N2CCOC(CF)C2)nn1` (stereo not drawn) [Example 161, 3,5-dichloro-2-[6-[2-(fluoromethyl)morpholin-4-yl]pyridazin-3-yl]phenol], the IC50 at NLRP3 inflammasome was 28 nM; in assay [1] (Homo sapiens, THP-1, 3 h) it was more than 10000 nM.

On to `CC(=O)NC[C@@H]1COCCN1c1ccc(-c2c(C)cc(C)cc2O)nn1` [Example 129, N-[[(3R)-4-[6-(2-hydroxy-4,6-dimethyl-phenyl)pyridazin-3-yl]morpholin-3-yl]methyl]acetamide], for which the IC50 on NLRP3 inflammasome was 665 nM; in assay [1] (Homo sapiens, THP-1, 3 h), more than 10000 nM.

With `CCC(=O)C1CN(c2ccc(-c3c(C)cc(C)cc3O)nn2)CCO1` (stereo not drawn) [Example 126, 1-[4-[6-(2-hydroxy-4,6-dimethylphenyl)pyridazin-3-yl]morpholin-2-yl]propan-1-one], the IC50 is 484 nM on NLRP3 inflammasome and more than 10000 nM in assay [1] (Homo sapiens, THP-1, 3 h).

Take `CCN1CC[C@H]2OCCN(c3ccc(-c4c(C)cccc4O)nn3)[C@H]2C1` [Example 412, 2-[6-[(4aS,8aR)-6-ethyl-3,4a,5,7,8,8a-hexahydro-2H-pyrido[4,3-b][1,4]oxazin-4-yl]pyridazin-3-yl]-3-methyl-phenol]: the IC50 at NLRP3 inflammasome is 18 nM; in assay [1] (Homo sapiens, THP-1, 3 h), more than 10000 nM.

For the compound `Cc1cc(C)c(-c2ccc(N3CCO[C@H](CC(N)=O)C3)nn2)c(O)c1` (single isomer, unassigned) [Example 146], the IC50 is 242 nM on NLRP3 inflammasome and more than 10000 nM in assay [1] (Homo sapiens, THP-1, 3 h).

In the case of `[2H]C([2H])(O)[C@@H]1CN(c2ccc(-c3c(C)cc(Cl)cc3O)nn2)CCO1` [Example 169, 5-chloro-2-[6-[(2S)-2-[dideuterio(hydroxy)methyl]morpholin-4-yl]pyridazin-3-yl]-3-methylphenol], the IC50 at NLRP3 inflammasome is 8 nM; in assay [1] (Homo sapiens, THP-1, 3 h) it was more than 10000 nM.

On to `Cc1cc(C)c(-c2ccc(N3CCC[C@H](N)C3)nn2)c(O)c1` [Example 69, 2-[6-[(3S)-3-amino-1-piperidyl]pyridazin-3-yl]-3,5-dimethyl-phenol], for which the IC50 at NLRP3 inflammasome was 200 nM; in assay [1] (Homo sapiens, THP-1, 3 h), more than 10000 nM.

With `Cc1cc(C(F)(F)F)cc(O)c1-c1ccc(N2CCO[C@@H](C)C2)nn1` [Example 259, 3-methyl-2-[6-[(2S)-2-methylmorpholin-4-yl]pyridazin-3-yl]-5-(trifluoromethyl)phenol], the IC50 at NLRP3 inflammasome is 67 nM; in assay [1] (Homo sapiens, THP-1, 3 h) it was more than 10000 nM.

In the case of `Cc1cc(C(F)(F)F)cc(O)c1-c1ccc(N2CC[C@H]3CN(C)C[C@H]32)nn1` (single isomer, unassigned) [Example 270], the IC50 was 493 nM on NLRP3 inflammasome and more than 10000 nM in assay [1] (Homo sapiens, THP-1, 3 h).

On to `Cc1ccc(-c2nnc(N3CCO[C@@H]4CCNC[C@@H]43)cc2C(F)F)c(O)c1` [Example 322, 2-[6-[(4aS,8aR)-2,3,4a,5,6,7,8,8a-octahydropyrido[4,3-b][1,4]oxazin-4-yl]-4-(difluoromethyl)pyridazin-3-yl]-5-methyl-phenol], for which the IC50 on NLRP3 inflammasome is 80 nM; in assay [1] (Homo sapiens, THP-1, 3 h) it was more than 10000 nM.

As for `Cc1cc(C)c(-c2ccc(N3C[C@@H](CO)CC3=O)nn2)c(O)c1` (single isomer, unassigned) [Example 138], the IC50 at NLRP3 inflammasome is 441 nM; in assay [1] (Homo sapiens, THP-1, 3 h) it was more than 10000 nM.

For `CC(=O)N1CC[C@H]2OCCN(c3cc(C(F)F)c(-c4ccc(C)cc4O)nn3)[C@H]2C1` [Example 387, 1-[(4aS,8aR)-4-[5-(difluoromethyl)-6-(2-hydroxy-4-methyl-phenyl)pyridazin-3-yl]-3,4a,5,7,8,8a-hexahydro-2H-pyrido[4,3-b][1,4]oxazin-6-yl]ethanone], the IC50 at NLRP3 inflammasome is 31 nM; in assay [1] (Homo sapiens, THP-1, 3 h), more than 10000 nM.

Take `CC(=O)NCCC1CN(c2ccc(-c3c(C)cc(C(F)(F)F)cc3O)nn2)CCO1` (single isomer, unassigned) [Example 278, N-[2-[4-[6-[2-hydroxy-6-methyl-4-(trifluoromethyl)phenyl]pyridazin-3-yl]morpholin-2-yl]ethyl]acetamide]: the IC50 is 50 nM at NLRP3 inflammasome and more than 10000 nM in assay [1] (3 hours).

For the compound `Cc1cc(C)c(-c2ccc(N3CCCc4ccc(O)cc43)nn2)c(O)c1` [Example 217, 1-[6-(2-hydroxy-4,6-dimethyl-phenyl)pyridazin-3-yl]-3,4-dihydro-2H-quinolin-7-ol], the IC50 is 127 nM at NLRP3 inflammasome and more than 10000 nM in assay [1] (Homo sapiens, THP-1, 3 h).

With `CC(=O)N1CC[C@H]2OCCN(c3ccc(-c4c(C)cc(C(F)(F)F)cc4O)nn3)[C@H]2C1` (racemic) [Example 214, 1-[rac-(4aS,8aR)-4-[6-[2-hydroxy-6-methyl-4-(trifluoromethyl)phenyl]pyridazin-3-yl]-3,4a,5,7,8,8a-hexahydro-2H-pyrido[4,3-b][1,4]oxazin-6-yl]ethanone], the IC50 at NLRP3 inflammasome is 36 nM; in assay [1] (Homo sapiens, THP-1, 3 h), more than 10000 nM.

As to `CCc1cc(N2CCO[C@H](CO)C2)nnc1-c1ccc(C)cc1O` [Example 72, 2-[4-ethyl-6-[(2S)-2-(hydroxymethyl)morpholin-4-yl]pyridazin-3-yl]-5-methyl-phenol], the IC50 on NLRP3 inflammasome is 107 nM; in assay [1] (Homo sapiens, THP-1, 3 h), more than 10000 nM.

With `Oc1cc(Cl)cc(Cl)c1-c1ccc(N2CCO[C@@H](CF)C2)nn1` (single isomer, unassigned) [Example 237], the IC50 on NLRP3 inflammasome came to 24 nM; in assay [1] (Homo sapiens, THP-1, 3 h), 4120 nM.
